Like-named read-outs stand apart in the source and are kept apart here.
What was measured:
PR = experiment: Uterine wet weight assay (PR agonist effectiveness); format: in vivo, Sprague-Dawely rats; conditions: for effect on uterine wet weight: co-administered with estrone, doses of 0.3 mg, 1.0 mg, and 3.0 mg/rat
Source text: J. Obstet. […] R.I. Dorfman, Academic Press, New York, New York, pp101-130 (1969), the disclosures of which are herein incorporated by reference. Four to five week old, ovariectomized, Sprague-Dawely rats (Harlan-Sprague-Dawely, Indianapolis, IN) were obtained 1 week after surgery and allowed to acclimate for an additional week after shipment.

human PR-B [1] = target: T1, human PR-B (Homo sapiens, UniProt P06401); experiment: Co-transfection assay, PR agonist activity; format: cell-based; conditions: for Emax: CV-1, read-out: PR Agonist CV-1 Cells Efficacy (%);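 as to all read-outs here: CV-1 cells (African green monkey kidney) co-transfected with receptor plasmid and hormone-responsive firefly luciferase reporter, agonism read as compound-dependent rise in luciferase signal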
T1 construct: expressed in transfected cells; host or cells: CV-1 cells (African green monkey kidney fibroblasts), transient transfection
T1 sequence (P06401 1-933): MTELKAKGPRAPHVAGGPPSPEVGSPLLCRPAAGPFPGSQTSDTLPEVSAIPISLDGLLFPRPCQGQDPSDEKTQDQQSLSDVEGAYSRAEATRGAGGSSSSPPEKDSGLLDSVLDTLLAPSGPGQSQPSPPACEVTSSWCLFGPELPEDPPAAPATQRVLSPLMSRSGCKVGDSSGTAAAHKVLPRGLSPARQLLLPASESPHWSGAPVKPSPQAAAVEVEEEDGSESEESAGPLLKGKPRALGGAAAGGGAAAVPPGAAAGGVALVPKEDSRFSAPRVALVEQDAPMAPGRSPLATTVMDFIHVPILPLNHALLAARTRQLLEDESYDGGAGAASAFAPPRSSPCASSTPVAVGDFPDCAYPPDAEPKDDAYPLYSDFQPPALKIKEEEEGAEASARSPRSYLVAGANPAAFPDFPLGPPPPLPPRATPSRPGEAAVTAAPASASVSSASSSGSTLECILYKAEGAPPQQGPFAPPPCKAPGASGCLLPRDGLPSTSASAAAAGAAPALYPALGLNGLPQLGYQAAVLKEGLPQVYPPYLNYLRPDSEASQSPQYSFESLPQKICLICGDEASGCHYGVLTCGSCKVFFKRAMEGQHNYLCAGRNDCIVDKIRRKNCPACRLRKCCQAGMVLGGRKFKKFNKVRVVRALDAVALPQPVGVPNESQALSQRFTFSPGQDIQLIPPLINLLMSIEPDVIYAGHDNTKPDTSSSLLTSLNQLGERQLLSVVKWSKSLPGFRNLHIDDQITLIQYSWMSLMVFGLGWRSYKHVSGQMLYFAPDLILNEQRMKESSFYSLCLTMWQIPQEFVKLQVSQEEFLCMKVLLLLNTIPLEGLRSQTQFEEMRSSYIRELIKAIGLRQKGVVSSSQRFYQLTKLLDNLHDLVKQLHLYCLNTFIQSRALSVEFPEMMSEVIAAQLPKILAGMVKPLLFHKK

human PR-B [2] = target: T1, human PR-B; experiment: Co-transfection assay, PR antagonist activity; format: cell-based; conditions: for Emax: CV-1, read-out: PR Antagonist CV-1 Cells Efficacy (%);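 as to all read-outs here: monkey kidney fibroblasts co-transfected with receptor expression plasmid and hormone-responsive luciferase reporter, antagonism read as reduced luciferase signal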
AR = target: T2, AR (Homo sapiens, UniProt P10275); experiment: Co-transfection assay, AR antagonist activity; format: cell-based
T2 construct: expressed in transfected cells; host or cells: CV-1 cells, transient transfection

ER [3] = target: T3, ER (Homo sapiens, UniProt P03372); experiment: Co-transfection assay, ER agonist activity; format: cell-based; conditions: for Emax: CV-1, read-out: ER Agonist CV-1 Cells Efficacy (%)
T3 construct: expressed in transfected cells; host or cells: CV-1 cells, transient transfection, with MTV-ERE5-LUC reporter

ER [4] = target: T3, ER; experiment: Co-transfection assay, ER antagonist activity; format: cell-based; conditions: for ER Antagonist CV-1 Cells Efficacy (%): percent maximal inhibition, estradiol at its EC50
GR = target: T4, GR (Homo sapiens, UniProt P04150); experiment: Co-transfection assay, GR antagonist activity; format: cell-based; conditions: for Emax: CV-1, read-out: GR Antagonist CV-1 Cells Efficacy (%)
T4 construct: expressed in transfected cells; host or cells: CV-1 cells, transient transfection
T4 sequence (P04150 1-777): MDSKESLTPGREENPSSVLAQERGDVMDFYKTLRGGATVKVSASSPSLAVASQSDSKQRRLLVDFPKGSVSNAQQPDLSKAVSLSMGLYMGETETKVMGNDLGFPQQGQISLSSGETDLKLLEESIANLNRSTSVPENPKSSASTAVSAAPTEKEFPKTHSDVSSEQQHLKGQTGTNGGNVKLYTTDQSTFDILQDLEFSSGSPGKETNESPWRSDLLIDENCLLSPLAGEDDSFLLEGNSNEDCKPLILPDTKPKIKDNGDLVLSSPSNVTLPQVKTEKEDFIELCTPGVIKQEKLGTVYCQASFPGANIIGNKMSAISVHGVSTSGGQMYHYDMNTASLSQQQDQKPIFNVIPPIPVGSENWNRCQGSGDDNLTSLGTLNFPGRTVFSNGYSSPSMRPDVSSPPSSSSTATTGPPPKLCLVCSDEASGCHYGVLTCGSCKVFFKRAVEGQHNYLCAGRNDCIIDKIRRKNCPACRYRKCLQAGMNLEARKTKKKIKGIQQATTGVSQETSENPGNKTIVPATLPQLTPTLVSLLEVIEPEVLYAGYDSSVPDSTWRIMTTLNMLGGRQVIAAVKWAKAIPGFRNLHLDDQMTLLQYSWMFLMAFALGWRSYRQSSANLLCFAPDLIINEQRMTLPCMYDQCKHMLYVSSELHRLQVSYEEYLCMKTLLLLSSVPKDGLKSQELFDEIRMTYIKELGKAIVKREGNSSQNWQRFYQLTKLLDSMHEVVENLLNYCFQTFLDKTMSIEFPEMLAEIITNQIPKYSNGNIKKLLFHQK

MR = target: T5, MR (Homo sapiens, UniProt P08235); experiment: Co-transfection assay, MR antagonist activity; format: cell-based; conditions: for Emax: CV-1, read-out: MR Antagonist CV-1 Cells Efficacy (%)
T5 construct: expressed in transfected cells; host or cells: CV-1 cells, transient transfection
T5 sequence (P08235 1-984): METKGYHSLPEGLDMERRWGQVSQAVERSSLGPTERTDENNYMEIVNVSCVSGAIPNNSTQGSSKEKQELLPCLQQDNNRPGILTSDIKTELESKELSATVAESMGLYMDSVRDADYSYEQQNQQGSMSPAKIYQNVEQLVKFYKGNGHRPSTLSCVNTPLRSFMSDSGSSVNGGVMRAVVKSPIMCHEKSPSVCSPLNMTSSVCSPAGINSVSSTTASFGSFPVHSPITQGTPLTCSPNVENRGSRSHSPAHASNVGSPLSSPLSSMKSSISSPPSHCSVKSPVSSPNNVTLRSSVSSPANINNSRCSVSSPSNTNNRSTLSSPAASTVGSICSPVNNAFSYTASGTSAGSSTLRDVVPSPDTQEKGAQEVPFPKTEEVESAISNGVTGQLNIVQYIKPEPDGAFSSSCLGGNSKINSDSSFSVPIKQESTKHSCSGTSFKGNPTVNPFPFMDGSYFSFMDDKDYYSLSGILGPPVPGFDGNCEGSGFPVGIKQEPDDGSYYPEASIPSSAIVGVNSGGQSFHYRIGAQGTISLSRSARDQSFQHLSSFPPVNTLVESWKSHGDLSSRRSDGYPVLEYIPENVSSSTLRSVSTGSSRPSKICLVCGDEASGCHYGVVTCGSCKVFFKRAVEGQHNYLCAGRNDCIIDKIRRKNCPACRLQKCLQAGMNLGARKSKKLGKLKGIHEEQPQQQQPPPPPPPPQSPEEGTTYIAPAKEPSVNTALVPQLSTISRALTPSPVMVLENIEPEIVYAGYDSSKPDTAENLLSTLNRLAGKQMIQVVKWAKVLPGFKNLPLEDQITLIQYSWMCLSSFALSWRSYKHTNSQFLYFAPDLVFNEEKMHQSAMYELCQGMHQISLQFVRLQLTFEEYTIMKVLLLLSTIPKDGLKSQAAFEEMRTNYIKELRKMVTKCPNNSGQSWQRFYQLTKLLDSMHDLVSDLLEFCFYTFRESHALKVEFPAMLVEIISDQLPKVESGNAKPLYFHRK

T3 sequence (P03372 whole entry): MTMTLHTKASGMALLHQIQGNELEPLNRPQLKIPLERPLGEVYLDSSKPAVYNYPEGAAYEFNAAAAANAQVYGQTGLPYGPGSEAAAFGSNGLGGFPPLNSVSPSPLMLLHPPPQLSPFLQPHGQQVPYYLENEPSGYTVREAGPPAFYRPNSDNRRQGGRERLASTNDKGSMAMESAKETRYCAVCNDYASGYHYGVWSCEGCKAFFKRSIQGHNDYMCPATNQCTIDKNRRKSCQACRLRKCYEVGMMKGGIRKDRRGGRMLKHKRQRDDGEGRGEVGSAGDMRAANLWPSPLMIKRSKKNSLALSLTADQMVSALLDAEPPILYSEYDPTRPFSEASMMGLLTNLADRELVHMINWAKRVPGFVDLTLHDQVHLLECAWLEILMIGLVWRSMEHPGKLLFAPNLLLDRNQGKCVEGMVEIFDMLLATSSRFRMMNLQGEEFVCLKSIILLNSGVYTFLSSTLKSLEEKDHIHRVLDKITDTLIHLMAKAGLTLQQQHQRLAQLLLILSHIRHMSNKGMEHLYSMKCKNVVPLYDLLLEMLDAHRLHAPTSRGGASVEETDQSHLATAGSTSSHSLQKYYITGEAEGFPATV
T2 sequence (P10275 whole entry): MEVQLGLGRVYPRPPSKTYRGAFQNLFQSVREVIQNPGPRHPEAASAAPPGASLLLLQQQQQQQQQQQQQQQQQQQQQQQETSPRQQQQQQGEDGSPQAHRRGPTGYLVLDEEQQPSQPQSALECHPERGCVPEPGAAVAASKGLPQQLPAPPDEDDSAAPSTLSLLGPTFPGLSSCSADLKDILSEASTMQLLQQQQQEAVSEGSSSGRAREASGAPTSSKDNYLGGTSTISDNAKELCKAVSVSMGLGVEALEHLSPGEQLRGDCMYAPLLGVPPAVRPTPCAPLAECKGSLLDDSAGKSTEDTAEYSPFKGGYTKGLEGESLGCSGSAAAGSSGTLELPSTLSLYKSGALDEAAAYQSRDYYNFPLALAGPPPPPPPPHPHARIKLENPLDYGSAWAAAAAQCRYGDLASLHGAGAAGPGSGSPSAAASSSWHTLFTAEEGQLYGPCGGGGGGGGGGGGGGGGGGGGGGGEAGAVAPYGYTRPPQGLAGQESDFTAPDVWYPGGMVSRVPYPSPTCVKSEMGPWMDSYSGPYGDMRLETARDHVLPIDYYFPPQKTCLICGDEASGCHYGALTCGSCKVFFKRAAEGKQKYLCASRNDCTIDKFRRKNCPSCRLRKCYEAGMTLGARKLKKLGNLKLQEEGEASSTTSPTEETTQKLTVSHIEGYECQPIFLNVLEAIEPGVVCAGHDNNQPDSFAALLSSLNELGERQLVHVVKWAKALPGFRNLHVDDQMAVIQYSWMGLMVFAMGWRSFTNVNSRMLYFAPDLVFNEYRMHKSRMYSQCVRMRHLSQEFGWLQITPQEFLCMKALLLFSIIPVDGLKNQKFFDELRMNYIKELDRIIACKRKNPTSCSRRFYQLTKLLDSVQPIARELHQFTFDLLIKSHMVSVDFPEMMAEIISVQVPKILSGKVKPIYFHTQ

C[C@]12CC[C@@H]3c4ccc(O)cc4CC[C@H]3[C@@H]1CCC2=O [estrone, reference compound]
Mean Uterine Wet Weight (PR; estrone 10 µg/day subcutaneous alone, three days, ovariectomized rats): 205 mg
increase of uterine wet weight over control treated animals (PR; estrone alone): 4 fold

CC(=O)O[C@]1(C(C)=O)CC[C@H]2[C@@H]3C[C@H](C)C4=CC(=O)CC[C@]4(C)[C@H]3CC[C@@]21C [MPA, medroxyprogesterone acetate, reference compound]
effect on uterine wet weight (PR): significantly decreased the uterine wet weight

CCCCC1Oc2ccc(F)cc2-c2ccc3c(c21)C(C)=CC(C)(C)N3 (racemic) [Compound 210, (R/S)-5-Butyl-9-fluoro-1,2-dihydro-2,2,4-trimethyl-5H-chromeno[3,4-f]quinoline]
effect on uterine wet weight (PR): decreased by approximately half

C=C1CC(C)(C)Nc2ccc3c(c21)C(c1cccc(F)c1)Oc1ccccc1-3 (racemic) [Compound 192, (R/S)-5-(3-Fluorophenyl)-1,2,3,4-tetrahydro-2,2-dimethyl-4-methylidene-5H-chromeno[3,4-f]quinoline]
EC50 (human PR-B [1]): > 10000 nM
IC50 (human PR-B [2]): 89 nM
IC50 (AR): 79 nM
EC50 (ER [3]): > 10 µM
Emax (ER [3]): < 20%
IC50 (ER [4]): 195 nM
ER Antagonist CV-1 Cells Efficacy (%) (ER [4]): 80%
Emax (GR): 81%
Emax (MR): 70%

CC1=CC(C)(C)Nc2ccc3c(c21)C(c1cccc(C(F)(F)F)c1)Oc1ccccc1-3 (racemic) [Compound 195, (R/S) 1,2-Dihydro-2,2,4-trimethyl-5-[3-(trifluoromethyl)phenyl]-5H-chromeno[3,4-f]quinoline]
Emax (human PR-B [1]): 89%
Emax (human PR-B [2]): < 20%
IC50 (AR): 470 nM
Emax (ER [3]): 90%
IC50 (ER [4]): 4410 nM
ER Antagonist CV-1 Cells Efficacy (%) (ER [4]): 68%
Emax (GR): 96%
Emax (MR): 47%

CC1=CC(C)(C)Nc2ccc3c(c21)C(c1ccc(C)cc1)Oc1ccccc1-3 (racemic) [Compound 167, (R/S)-1,2-Dihydro-2,2,4-trimethyl-5-(4-methylphenyl)-5H-chromeno[3,4-f]quinoline]
Emax (GR): 96%
Emax (MR): 61%

CC(C)(O)C(=O)Nc1ccc([N+](=O)[O-])c(C(F)(F)F)c1 [Flut]
EC50 (ER [3]): > 10 µM
IC50 (ER [4]): > 10000 nM

8-Fluoro-1,2-dihydro-2,2,4-trimethylindeno[1,2-g]quinoline [Compound 124]
EC50 (ER [3]; Table 5 overall potency, co-transfection assay, read-out: ER Potency Agon): 2.1 µM
IC50 (ER [4]; Table 5 overall potency, co-transfection assay, read-out: ER Potency Antag): > 10000 nM
IC50 (GR; Table 5 overall potency, co-transfection assay, read-out: GR Potency Antag): > 10 µM
IC50 (MR; Table 5 overall potency, co-transfection assay, read-out: MR Potency Antag): > 10 µM

CC1=CC(C)(C)Nc2ccc3c(c21)C(c1ccsc1)Oc1ccccc1-3 (racemic) [Compound 170, (R/S)-1,2-Dihydro-2,2,4-trimethyl-5-(thiophen-3-yl)-5H-chromeno[3,4-f]quinoline]
EC50 (human PR-B [1]): 73 nM
IC50 (human PR-B [2]): 145 nM
IC50 (AR): 290 nM
IC50 (ER [4]): 580 nM
ER Antagonist CV-1 Cells Efficacy (%) (ER [4]): 78%
Emax (GR): 94%
Emax (MR): 84%

CC1=CC(C)(C)Nc2ccc3c(c21)C(c1ccccc1)Oc1ccccc1-3 (racemic) [Compound 161, (R/S)-1,2-Dihydro-2,2,4-trimethyl-5-phenyl-5H-chromeno[3,4-f]quinoline]
Emax (human PR-B [1]): 47%
Emax (human PR-B [2]): 75%
Emax (GR): 97%
Emax (MR): 58%

CC(=O)S[C@@H]1CC2=CC(=O)CC[C@]2(C)[C@H]2CC[C@@]3(C)[C@@H](CC[C@@]34CCC(=O)O4)[C@H]12 [Spir, 7-alpha-[acetylthio]-17-alpha-hydroxy-3-oxopregn-4-ene-21-carboxylic acid gamma-lactone, reference compound]
Emax (GR): 80%
Emax (MR): 96%

CC#C[C@]1(O)CC[C@H]2[C@@H]3CCC4=CC(=O)CCC4=C3[C@@H](c3ccc(N(C)C)cc3)C[C@@]21C [RU486, (11beta, 17beta)-11-[4-(dimethylamino)phenyl]-17-hydroxy-17-(1-propynyl)estra-4,9-dien-3-one, reference compound]
Emax (human PR-B [1]): < 20%
Emax (GR): 100%
Emax (MR): 77%

CCCCN(C)C(=O)CCCCCCCCCC[C@@H]1Cc2cc(O)ccc2[C@H]2CC[C@]3(C)[C@@H](O)CC[C@H]3[C@H]12 [ICI 164, N-butyl-3,17-dihydroxy-N-methyl-(7-alpha, 17-beta)-estra-1,3,5(10)-triene-7-undecanamide, reference compound]
Emax (ER [3]): < 20%
ER Antagonist CV-1 Cells Efficacy (%) (ER [4]): 99%
